Laboratory results as given in US10392368B2, “Pyrazolo and triazolo bicyclic compounds as JAK kinase inhibitors” (THERAVANCE BIOPHARMA R&D IP, LLC, priority 2017, dated 2019).
Like-named read-outs stand apart in the source and are kept apart here.

Columns and labels:
[1] = target: T1, JAK1 (Homo sapiens, UniProt P23458); test: Biochemical JAK1 kinase assay (LanthaScreen); details: for Ki: read-out: JAK 1 (pKi) (converted)
T1 construct: GST; purchased Life Technologies
Procedure, shortened: (§1)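 Values are pKi, calculated by Cheng-Prusoff from IC50 obtained by robust 4-parameter fitting of percent inhibition. The kinase reaction used GFP-STAT1 peptide in HEPES pH 7.5 buffer with MgCl2, EGTA and Brij-35, ATP-initiated after compound pre-incubation, 1 h at ambient temperature.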

[2] = target: T2, Tyk2 (Homo sapiens, UniProt P29597); test: Biochemical Tyk2 kinase assay (LanthaScreen); details: for Ki: read-out: Tyk 2 (pKi) (converted)
T2 construct: GST; purchased Life Technologies
Procedure, shortened: as §1

[3] = system: IL-2 stimulated pSTAT5 in Tall-1 T cells; test: Cellular JAK3 potency assay: inhibition of IL-2 stimulated pSTAT5 in Tall-1 T cells; format: cell-based, human; details: for IC50: Homo sapiens, read-out: Tall-1 (pIC50) (converted)
Procedure, shortened: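 Tall-1 human T cells were preincubated with compound for 1 h at 37° C, then stimulated with IL-2 (300 ng/ml final) for 30 min. STAT5 phosphorylation in lysates was read by AlphaLisa bead emission, and IC50 from inhibition curves is given as pIC50 (mean±SD).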

[4] = target: T3, JAK3 (Homo sapiens, UniProt P52333); test: Biochemical JAK3 kinase assay (LanthaScreen); set-up: GST; purchased Life Technologies; details: for Ki: read-out: JAK 3 (pKi) (converted)
T3 sequence (P52333 1-1124): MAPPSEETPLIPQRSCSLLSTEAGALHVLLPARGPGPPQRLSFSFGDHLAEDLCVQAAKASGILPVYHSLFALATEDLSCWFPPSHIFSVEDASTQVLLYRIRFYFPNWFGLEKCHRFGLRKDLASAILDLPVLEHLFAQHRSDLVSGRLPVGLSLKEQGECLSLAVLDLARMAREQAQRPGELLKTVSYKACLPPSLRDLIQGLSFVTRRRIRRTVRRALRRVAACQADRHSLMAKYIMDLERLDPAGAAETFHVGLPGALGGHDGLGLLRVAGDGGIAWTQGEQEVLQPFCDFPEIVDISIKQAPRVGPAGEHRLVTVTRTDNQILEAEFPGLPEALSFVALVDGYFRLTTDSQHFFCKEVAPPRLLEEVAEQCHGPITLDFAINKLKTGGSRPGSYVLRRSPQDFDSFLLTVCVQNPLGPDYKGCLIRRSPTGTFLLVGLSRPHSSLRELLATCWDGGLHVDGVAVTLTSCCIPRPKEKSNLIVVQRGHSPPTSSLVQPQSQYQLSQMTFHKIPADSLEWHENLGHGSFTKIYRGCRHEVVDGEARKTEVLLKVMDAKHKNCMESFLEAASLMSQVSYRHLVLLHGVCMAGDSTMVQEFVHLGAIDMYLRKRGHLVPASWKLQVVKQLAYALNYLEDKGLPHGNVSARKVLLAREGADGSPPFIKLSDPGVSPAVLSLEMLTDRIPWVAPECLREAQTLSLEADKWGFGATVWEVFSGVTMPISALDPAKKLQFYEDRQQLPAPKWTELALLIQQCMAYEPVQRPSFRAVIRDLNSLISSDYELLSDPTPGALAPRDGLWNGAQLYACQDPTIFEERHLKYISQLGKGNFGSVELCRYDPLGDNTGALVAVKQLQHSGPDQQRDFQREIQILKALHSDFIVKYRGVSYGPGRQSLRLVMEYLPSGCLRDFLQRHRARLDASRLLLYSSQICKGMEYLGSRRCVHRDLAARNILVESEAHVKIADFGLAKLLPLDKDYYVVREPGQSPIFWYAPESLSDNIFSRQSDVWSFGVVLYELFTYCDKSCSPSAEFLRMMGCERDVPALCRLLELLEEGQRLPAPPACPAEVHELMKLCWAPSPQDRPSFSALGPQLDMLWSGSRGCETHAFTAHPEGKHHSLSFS
Procedure, shortened: as §1

[5] = target: T4, JAK2 (Homo sapiens, UniProt O60674); test: Biochemical JAK2 kinase assay (LanthaScreen); details: for Ki: read-out: JAK 2 (pKi) (converted)
T4 construct: GST; purchased Life Technologies
Procedure, shortened: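 pKi values derive from pIC50 via Cheng-Prusoff, with IC50 from a 4-parameter fit of percent-inhibition TR-FRET data using Tb-anti-pSTAT1 (pTyr701) detection. Compound, GST-JAK2 and GFP-STAT1 substrate were pre-incubated 1 h, then ATP started a 1 h ambient reaction (HEPES pH 7.5, 10 mM MgCl2, 1% DMSO).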

[6] = IL-2 stimulated pSTAT5, Tall-1 T cells
[7] = selectivity JAK3 over JAK1, difference of pKi
[8] = TALL-1, IL-2 stimulated pSTAT5 in Tall-1 T cells
[9] = selectivity: difference of pKi JAK3 and pKi JAK1
[10] = IL-2 stimulated pSTAT5 in Tall-1 T cells

T4 sequence (O60674 whole entry): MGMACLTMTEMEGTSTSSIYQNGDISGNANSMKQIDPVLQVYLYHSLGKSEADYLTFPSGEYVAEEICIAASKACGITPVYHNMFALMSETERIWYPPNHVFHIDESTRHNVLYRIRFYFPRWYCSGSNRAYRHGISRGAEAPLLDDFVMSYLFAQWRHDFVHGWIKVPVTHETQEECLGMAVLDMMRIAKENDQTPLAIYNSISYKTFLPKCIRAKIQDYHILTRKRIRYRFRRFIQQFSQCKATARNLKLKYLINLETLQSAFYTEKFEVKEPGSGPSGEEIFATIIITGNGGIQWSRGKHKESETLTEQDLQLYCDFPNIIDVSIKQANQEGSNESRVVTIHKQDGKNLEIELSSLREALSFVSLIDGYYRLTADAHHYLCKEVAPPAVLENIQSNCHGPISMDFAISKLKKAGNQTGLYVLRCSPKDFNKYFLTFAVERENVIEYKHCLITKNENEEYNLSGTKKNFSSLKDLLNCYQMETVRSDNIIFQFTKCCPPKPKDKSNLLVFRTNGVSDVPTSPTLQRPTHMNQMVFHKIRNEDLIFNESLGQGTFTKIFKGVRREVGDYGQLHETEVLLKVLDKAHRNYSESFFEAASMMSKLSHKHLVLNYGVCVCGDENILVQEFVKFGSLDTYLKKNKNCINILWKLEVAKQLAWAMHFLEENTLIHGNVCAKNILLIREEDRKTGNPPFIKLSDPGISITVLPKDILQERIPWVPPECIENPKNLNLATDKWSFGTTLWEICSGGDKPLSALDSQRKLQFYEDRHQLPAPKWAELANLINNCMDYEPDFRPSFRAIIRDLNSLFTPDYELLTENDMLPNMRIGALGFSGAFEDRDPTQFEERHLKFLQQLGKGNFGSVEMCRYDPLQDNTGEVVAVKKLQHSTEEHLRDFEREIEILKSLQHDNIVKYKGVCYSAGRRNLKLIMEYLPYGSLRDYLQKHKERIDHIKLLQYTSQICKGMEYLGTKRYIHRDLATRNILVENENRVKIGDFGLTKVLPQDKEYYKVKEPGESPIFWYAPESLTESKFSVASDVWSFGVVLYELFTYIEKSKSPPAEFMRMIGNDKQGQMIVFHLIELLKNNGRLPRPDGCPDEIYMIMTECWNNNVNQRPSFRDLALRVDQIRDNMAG
T2 sequence (P29597 whole entry): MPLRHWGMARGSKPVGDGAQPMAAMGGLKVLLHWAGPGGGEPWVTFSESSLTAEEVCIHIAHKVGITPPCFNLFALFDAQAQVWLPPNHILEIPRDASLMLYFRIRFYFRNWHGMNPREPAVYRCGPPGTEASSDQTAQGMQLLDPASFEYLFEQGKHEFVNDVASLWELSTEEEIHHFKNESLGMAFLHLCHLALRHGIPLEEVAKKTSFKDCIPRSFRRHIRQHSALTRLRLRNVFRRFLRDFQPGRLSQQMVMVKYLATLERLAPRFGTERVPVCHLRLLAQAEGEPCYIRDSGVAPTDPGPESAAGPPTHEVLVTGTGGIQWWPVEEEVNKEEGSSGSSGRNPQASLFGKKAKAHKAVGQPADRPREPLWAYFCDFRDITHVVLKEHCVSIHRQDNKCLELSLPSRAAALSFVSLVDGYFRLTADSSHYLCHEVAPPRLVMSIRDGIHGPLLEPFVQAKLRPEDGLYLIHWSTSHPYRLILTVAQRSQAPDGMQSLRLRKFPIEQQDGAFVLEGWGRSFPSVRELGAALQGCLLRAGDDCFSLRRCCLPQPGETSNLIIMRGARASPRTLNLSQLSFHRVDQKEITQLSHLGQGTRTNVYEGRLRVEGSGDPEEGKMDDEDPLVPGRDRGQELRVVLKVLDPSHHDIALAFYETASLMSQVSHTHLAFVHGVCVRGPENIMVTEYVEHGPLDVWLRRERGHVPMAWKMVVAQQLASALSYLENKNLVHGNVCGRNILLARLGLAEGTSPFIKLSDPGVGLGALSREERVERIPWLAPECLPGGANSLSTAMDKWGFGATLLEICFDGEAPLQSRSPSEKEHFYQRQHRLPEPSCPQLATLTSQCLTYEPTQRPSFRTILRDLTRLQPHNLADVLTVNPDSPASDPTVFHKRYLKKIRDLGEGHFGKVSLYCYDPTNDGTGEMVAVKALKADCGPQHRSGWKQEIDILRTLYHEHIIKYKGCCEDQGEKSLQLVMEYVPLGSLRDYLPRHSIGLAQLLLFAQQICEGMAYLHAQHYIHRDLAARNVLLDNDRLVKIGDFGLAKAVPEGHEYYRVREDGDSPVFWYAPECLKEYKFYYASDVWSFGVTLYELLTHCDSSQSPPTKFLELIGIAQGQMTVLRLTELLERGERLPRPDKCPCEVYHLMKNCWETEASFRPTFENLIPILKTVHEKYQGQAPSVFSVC
T1 sequence (P23458 whole entry): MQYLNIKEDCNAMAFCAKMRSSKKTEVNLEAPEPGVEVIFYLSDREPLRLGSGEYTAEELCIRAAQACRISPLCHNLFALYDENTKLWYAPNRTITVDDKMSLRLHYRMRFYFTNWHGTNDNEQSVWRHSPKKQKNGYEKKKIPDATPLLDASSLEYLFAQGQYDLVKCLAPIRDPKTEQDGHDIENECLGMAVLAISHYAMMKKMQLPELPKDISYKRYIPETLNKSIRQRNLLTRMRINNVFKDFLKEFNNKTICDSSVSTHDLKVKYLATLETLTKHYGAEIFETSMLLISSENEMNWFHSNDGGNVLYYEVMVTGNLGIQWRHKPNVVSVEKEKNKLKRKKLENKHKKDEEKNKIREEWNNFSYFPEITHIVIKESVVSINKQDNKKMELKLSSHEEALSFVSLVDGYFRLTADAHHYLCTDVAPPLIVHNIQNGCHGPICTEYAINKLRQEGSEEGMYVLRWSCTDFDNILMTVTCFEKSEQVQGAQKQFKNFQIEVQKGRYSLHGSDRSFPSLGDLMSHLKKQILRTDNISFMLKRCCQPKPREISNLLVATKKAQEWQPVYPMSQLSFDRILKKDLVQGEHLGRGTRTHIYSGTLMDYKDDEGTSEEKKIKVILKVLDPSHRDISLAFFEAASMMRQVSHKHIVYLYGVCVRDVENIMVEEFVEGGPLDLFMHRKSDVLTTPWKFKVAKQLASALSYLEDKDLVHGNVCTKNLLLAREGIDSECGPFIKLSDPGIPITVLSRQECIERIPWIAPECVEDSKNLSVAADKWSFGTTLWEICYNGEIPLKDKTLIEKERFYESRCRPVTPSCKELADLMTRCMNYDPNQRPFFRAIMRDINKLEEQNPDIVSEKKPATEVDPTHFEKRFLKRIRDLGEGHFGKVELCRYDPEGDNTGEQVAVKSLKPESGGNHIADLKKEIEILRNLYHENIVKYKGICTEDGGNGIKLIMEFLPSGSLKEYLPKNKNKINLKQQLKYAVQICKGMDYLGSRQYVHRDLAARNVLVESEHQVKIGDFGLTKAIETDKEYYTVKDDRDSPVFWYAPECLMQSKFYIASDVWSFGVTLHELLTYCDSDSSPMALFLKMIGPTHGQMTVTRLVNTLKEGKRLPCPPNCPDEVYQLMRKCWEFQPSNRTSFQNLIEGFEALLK

Row | Compound | JAK 1 (pKi) [1] | Tyk 2 (pKi) [2] | Tall-1 (pIC50) [3, 6] | JAK 3 (pKi) [4] | JAK3 (pKi)-JAK1 (pKi) [4, 7] | JAK 2 (pKi) [5] | Ki [1] [nM] | Ki [2] [nM] | IC50 [3, 8] [nM] | Ki [4] [nM] | JAK3 (pKi)-JAK1 (pKi) [4, 9] | Ki [5] [nM] | Tall-1 (pIC50) [3, 10] | IC50 ([3]; TALL-1, IL-2 stimulated pSTAT5, Tall-1 T cells) [nM]
1 | CN(C)C/C=C/C(=O)N1CC(CSc2cc(-c3ccc(O)c(Cl)c3)cc3[nH]ncc23)C1 [Compound 13-6] | E (a pKi value of 7 or below (Ki of 100 nM or above)) | E (a pKi value of 7 or below (Ki of 100 nM or above)) | A (a pIC50 value≥7.5 (IC50≤32 nM)) | A (a pKi value≥10 (Ki≤0.1 nM)) | A (a value of 3 or above) | E (a pKi value of 7 or below (Ki of 100 nM or above)) |  |  |  |  |  |  |  | 
2 | CN(C)C/C=C/C(=O)N1CC(OCc2nc(-c3ccc(O)cc3)cc3[nH]ncc23)C1 [Compound 16-6] | E (a pKi value of 7 or below (Ki of 100 nM or above)) | E (a pKi value of 7 or below (Ki of 100 nM or above)) | C (a pIC50 value between 6 and 6.7 (IC50 between 1 μM and 200 nM)) | B (a pKi value between 9 and 10 (Ki between 1 nM and 0.1 nM)) | A (a value of 3 or above) | E (a pKi value of 7 or below (Ki of 100 nM or above)) |  |  |  |  |  |  |  | 
3 | CN(C)C/C=C/C(=O)N1CC(CSc2cc(-c3ccc(O)c(F)c3)cc3[nH]ncc23)C1 [Compound 13-5] | E (a pKi value of 7 or below (Ki of 100 nM or above)) | E (a pKi value of 7 or below (Ki of 100 nM or above)) | B (a pIC50 value between 6.7 (included) and 7.5 (IC50 between 200 nM and 32 nM)) | A (a pKi value≥10 (Ki≤0.1 nM)) | A (a value of 3 or above) | D (a pKi value between 7 and 8 (Ki between 100 nM and 10 nM)) |  |  |  |  |  |  |  | 
4 | C=CC(=O)N1C[C@@H](Oc2cc(-c3ccc(O)cc3)nc3[nH]ncc23)C[C@H]1C [Compound 1-26] |  |  |  |  |  |  | > 100 | > 100 | 31.6 to 200 | < 0.1 | A (a value of 3 or above) | > 100 |  | 
5 | C=CC(=O)N1CC(F)(COc2cc(-c3ccc(O)cc3)nc3[nH]ncc23)C1 [Compound 3-46] |  |  |  |  |  |  | > 100 | > 100 | < 31.6 | < 0.1 | A (a value of 3 or above) | > 100 |  | 
6 | C=CC(=O)N1CC[C@H](COc2nc(-c3ccc(O)cc3)cc3[nH]ncc23)C1 [Compound 2-8] | E (a pKi value of 7 or below (Ki of 100 nM or above)) | E (a pKi value of 7 or below (Ki of 100 nM or above)) |  | B (a pKi value between 9 and 10 (Ki between 1 nM and 0.1 nM)) |  | D (a pKi value between 7 and 8 (Ki between 100 nM and 10 nM)) |  |  |  |  | A (a value of 3 or above) |  | B (a pIC50 value between 6.7 (included) and 7.5 (IC50 between 200 nM and 32 nM)) | 
7 | C=CC(=O)N1CC(C#N)(COc2nc(-c3ccc(O)cc3)cc3[nH]ncc23)C1 [Compound 3-103] |  |  |  |  |  |  | > 100 | > 100 | < 31.6 | < 0.1 | A (a value of 3 or above) | 10 to 100 |  | 
8 | C=CC(=O)N1CC(CN(C)c2cc(-c3ccc(O)cc3)cc3[nH]ncc23)C1 [Compound 4-1] | E (a pKi value of 7 or below (Ki of 100 nM or above)) | E (a pKi value of 7 or below (Ki of 100 nM or above)) |  | B (a pKi value between 9 and 10 (Ki between 1 nM and 0.1 nM)) |  | E (a pKi value of 7 or below (Ki of 100 nM or above)) |  |  |  |  | A (a value of 3 or above) |  | B (a pIC50 value between 6.7 (included) and 7.5 (IC50 between 200 nM and 32 nM)) | 
9 | CN(C)C/C=C/C(=O)N1CC(F)(C(=O)Nc2cc(-c3ccc(O)cc3)cc3[nH]ncc23)C1 [Compound 12-67] |  |  |  |  | A (a value of 3 or above) |  | > 100 | > 100 |  | 0.1 to 1 |  | > 100 |  | 31.6 to 200
